Reference: ChEMBL document CHEMBL3244122, “Symbiotic approach to drug design: antihypertensive beta-adrenergic blocking agents” (J Med Chem, 1979)

Experiments:
Canis familiaris [1] = assay: In vivo beta-adrenergic receptor blockade in iv dosed anesthetized dog assessed as inhibition of isoproterenol-induced hypotension; format: functional; conditions: Canis lupus familiaris
Canis familiaris [2] = assay: In vivo beta-adrenergic receptor blockade in iv dosed anesthetized dog assessed as inhibition of isoproterenol-induced tachycardia; format: functional; conditions: Canis lupus familiaris
Rattus norvegicus [3] = assay: Antihypertensive activity in spontaneously hypertensive Wistar-Okamoto rat assessed as duration of action at 0.312 mg/kg, po; format: functional
Rattus norvegicus [4] = assay: Antihypertensive activity in spontaneously hypertensive Wistar-Okamoto rat assessed as maximal fall in mean arterial pressure at 1.25 mg/kg, po; format: functional, Artery
Rattus norvegicus [5] = assay: Antihypertensive activity in spontaneously hypertensive Wistar-Okamoto rat assessed as maximal fall in mean arterial pressure at 0.625 mg/kg, po; format: functional, Artery
Rattus norvegicus [6] = assay: Antihypertensive activity in spontaneously hypertensive Wistar-Okamoto rat assessed as maximal fall in mean arterial pressure at 0.312 mg/kg, po; format: functional, Artery
Rattus norvegicus [7] = assay: Antihypertensive activity in spontaneously hypertensive Wistar-Okamoto rat assessed as duration of action at 20 mg/kg, po; format: functional
Rattus norvegicus [8] = assay: Antihypertensive activity in spontaneously hypertensive Wistar-Okamoto rat assessed as maximal fall in mean arterial pressure at 5 mg/kg, po; format: functional, Artery
Rattus norvegicus [9] = assay: Antihypertensive activity in spontaneously hypertensive Wistar-Okamoto rat assessed as duration of action at 5 mg/kg, po; format: functional
Rattus norvegicus [10] = assay: Antihypertensive activity in spontaneously hypertensive Wistar-Okamoto rat assessed as maximal fall in mean arterial pressure at 20 mg/kg, po; format: functional, Artery
Rattus norvegicus [11] = assay: Antihypertensive activity in spontaneously hypertensive Wistar-Okamoto rat assessed as duration of action at 1.25 mg/kg, po; format: functional
Rattus norvegicus [12] = assay: Antihypertensive activity in spontaneously hypertensive Wistar-Okamoto rat assessed as maximal fall in mean arterial pressure at 20 mg/kg, ip; format: functional, Artery; conditions: route intraperitoneal
Canis familiaris [13] = assay: Vasodilatory activity in anesthetized dog assessed as increase in iliac blood flow […] ia; format: functional, Canis lupus familiaris, Artery
Canis familiaris [14] = assay: Vasodilatory activity in anesthetized dog assessed as increase in iliac blood flow […] measured after 800 ug/kg, iv beta-adrenergic receptor blocker timolol administration; format: functional, Canis lupus familiaris, Artery
Rattus norvegicus [15] = assay: Antihypertensive activity in spontaneously hypertensive Wistar-Okamoto rat assessed as maximal fall in mean arterial pressure at 8 mg/kg, po; format: functional, Artery
Canis familiaris [16] = assay: Vasodilatory activity in anesthetized dog assessed as increase in iliac blood flow at 800 mg, ia measured after 320 ug/kg, iv beta-adrenergic receptor blocker timolol administration; format: functional, Canis lupus familiaris, Artery
Rattus norvegicus [17] = assay: Antihypertensive activity in spontaneously hypertensive Wistar-Okamoto rat assessed as maximal fall in mean arterial pressure at 1 mg/kg, po; format: functional, Artery
Canis familiaris [18] = assay: Vasodilatory activity in anesthetized dog assessed as increase in iliac blood flow at 800 mg, ia measured after 800 ug/kg, iv beta-adrenergic receptor blocker timolol administration; format: functional, Canis lupus familiaris, Artery
Rattus norvegicus [19] = assay: Antihypertensive activity in spontaneously hypertensive Wistar-Okamoto rat assessed as duration of action at 1 mg/kg, po; format: functional
Rattus norvegicus [20] = assay: Antihypertensive activity in spontaneously hypertensive Wistar-Okamoto rat assessed as maximal fall in mean arterial pressure at 2 mg/kg, po; format: functional, Artery
Rattus norvegicus [21] = assay: Antihypertensive activity in spontaneously hypertensive Wistar-Okamoto rat assessed as duration of action at 2 mg/kg, po; format: functional
Rattus norvegicus [22] = assay: Antihypertensive activity in spontaneously hypertensive Wistar-Okamoto rat assessed as duration of action at 8 mg/kg, po; format: functional
Canis familiaris [23] = assay: Vasodilatory activity in anesthetized dog assessed as increase in iliac blood flow at 800 mg, ia; format: functional, Canis lupus familiaris, Artery
Canis familiaris [24] = assay: Vasodilatory activity in anesthetized dog assessed as increase in iliac blood flow […] measured after 2000 ug/kg, iv beta-adrenergic receptor blocker timolol administration; format: functional, Canis lupus familiaris, Artery
Canis familiaris [25] = assay: Vasodilatory activity in anesthetized dog assessed as increase in iliac blood flow at 64 mg, ia measured after 800 ug/kg, iv beta-adrenergic receptor blocker timolol administration; format: functional, Canis lupus familiaris, Artery
Canis familiaris [26] = assay: Vasodilatory activity in anesthetized dog assessed as increase in iliac blood flow at 250 mg, ia measured after 800 ug/kg, iv beta-adrenergic receptor blocker timolol administration; format: functional, Canis lupus familiaris, Artery
Rattus norvegicus [27] = assay: Antihypertensive activity in spontaneously hypertensive Wistar-Okamoto rat assessed as maximal fall in mean arterial pressure at 0.078 mg/kg, po; format: functional, Artery
Canis familiaris [28] = assay: Vasodilatory activity in anesthetized dog assessed as increase in iliac blood flow at 250 mg, ia measured after 2000 ug/kg, iv beta-adrenergic receptor blocker timolol administration; format: functional, Canis lupus familiaris, Artery
Canis familiaris [29] = assay: Vasodilatory activity in anesthetized dog assessed as increase in iliac blood flow at 64 mg, ia measured after 2000 ug/kg, iv beta-adrenergic receptor blocker timolol administration; format: functional, Canis lupus familiaris, Artery
Canis familiaris [30] = assay: Vasodilatory activity in anesthetized dog assessed as increase in iliac blood flow […] measured after 320 ug/kg, iv beta-adrenergic receptor blocker timolol administration; format: functional, Canis lupus familiaris, Artery
Rattus norvegicus [31] = assay: Antihypertensive activity in spontaneously hypertensive Wistar-Okamoto rat assessed as duration of action at 20 mg/kg, ip; format: functional; conditions: route intraperitoneal

Row | SMILES | ED50 (Canis familiaris [1]) [mg/kg] | ED50 (Canis familiaris [2]) [mg/kg] | Activity (Rattus norvegicus [4]) [mmHg] | Time (Rattus norvegicus [7]) [h] | Activity (Rattus norvegicus [8]) [mmHg] | Time (Rattus norvegicus [9]) [h] | Activity (Rattus norvegicus [10]) [mmHg] | Activity (Canis familiaris [13]) [mL/min] | Activity (Canis familiaris [24]) [mL/min] | further results
1 | CC(C)(C)NC[C@H](O)COc1nsnc1N1CCOCC1 [TIMOLOL] | 0.0013 | 0.0024 | -1 |  |  |  |  |  |  | Time (Rattus norvegicus [3]): 8 h; Activity (Rattus norvegicus [5]): 0 mmHg; Activity (Rattus norvegicus [6]): 32 mmHg
2 | CC(C)NCC(O)COc1cccc2ccccc12 (centres undefined) [PROPRANOLOL] | 0.019 | 0.051 | 12 | 12 | 7 | <8 | 14 |  |  | Time (Rattus norvegicus [11]): 8 h
3 | CC(C)(C)NCC(O)COc1ccc(-c2ncc(C(F)(F)F)[nH]2)cn1 (centres undefined) | 0.058 | 0.0025 |  | >7 |  |  |  | 103 |  | Activity (Rattus norvegicus [12]): 40 mmHg; Activity (Canis familiaris [14]): 38 mL/min
4 | FC(F)(F)c1cnc(-c2cccnc2)[nH]1 |  |  |  |  |  |  |  |  |  | Activity (Rattus norvegicus [15]): 48 mmHg; Activity (Canis familiaris [16]): 99 mL/min; Activity (Rattus norvegicus [17]): 21 mmHg; Activity (Canis familiaris [18]): 76 mL/min; Time (Rattus norvegicus [19]): 2 h; Activity (Rattus norvegicus [20]): 39 mmHg; Time (Rattus norvegicus [21]): 6 h; Time (Rattus norvegicus [22]): >6 h; Activity (Canis familiaris [23]): 93 mL/min
5 | CC(C)(C)NCC(O)COc1ncccc1C(F)(F)F (centres undefined) | < 0.001 | < 0.001 | 28 | 18 |  |  | 36 | 100 | 145 | Activity (Canis familiaris [25]): 41 mL/min; Activity (Canis familiaris [26]): 60 mL/min; Time (Rattus norvegicus [11]): 4 h; Activity (Rattus norvegicus [6]): 15 mmHg
6 | CC(C)(C)NCC(O)COc1ccc(-c2ncc(-c3ccccc3)[nH]2)cc1 (centres undefined) | 0.083 | 0.038 | 20 | >24 | 30 | 4 | 54 | 46 | 42 | 
7 | CC(C)(C)NCC(O)COc1ncccc1S(C)(=O)=O (centres undefined) |  |  |  |  | 12 |  | 13 | 10 |  | Activity (Canis familiaris [14]): 8 mL/min
8 | CC(C)(C)NC[C@H](O)COc1ncccc1C#N.Cl | 0.0052 | 0.0015 | 47 |  |  |  |  | 98 | 90 | Activity (Rattus norvegicus [27]): 19 mmHg; Activity (Canis familiaris [25]): 38 mL/min; Time (Rattus norvegicus [3]): 1 h; Activity (Canis familiaris [26]): 62 mL/min; Time (Rattus norvegicus [11]): >12 h; Activity (Rattus norvegicus [6]): 30 mmHg
9 | CC(C)(C)NC[C@@H](O)COc1ncccc1C#N.Cl | 0.1 | 0.1 | 22 | 4 | 27 | 1 | 40 |  | 82 | Activity (Canis familiaris [28]): 22 mL/min; Activity (Canis familiaris [29]): 13 mL/min
10 | CC(C)(C)NCC(O)COc1ccc(-c2nc(C(F)(F)F)c[nH]2)cc1 (centres undefined) | 0.036 | 0.009 | 36 |  | 49 | 18 |  | 79 | 15 | Time (Rattus norvegicus [3]): 7 h; Time (Rattus norvegicus [11]): 18 h; Activity (Rattus norvegicus [6]): 21 mmHg
11 | CC(C)(C)NC[C@H](O)COc1ccc(-c2ncc[nH]2)cc1 | > 1 | 0.067 |  |  |  |  |  |  |  | 
12 | Cc1cc(C)c(C#N)c(OCC(O)CNC(C)(C)C)n1 (centres undefined) | 0.0026 | 0.0015 |  | 8 | 16 |  | 21 | 33 | 3 | 
13 | CC(C)(C)NCC(O)COc1cc(C#N)ccn1 (centres undefined) | > 0.03 | 0.03 | 15 | 4 | 30 | 2 | 55 | 35 |  | Activity (Canis familiaris [14]): 18 mL/min
14 | Cc1cnc(-c2ccc(OC[C@@H](O)CNC(C)(C)C)cc2)[nH]1 | > 1 | 0.03 |  |  |  |  |  |  |  | 
15 | Cc1c[nH]c(-c2ccc(OCC(O)CNC(C)(C)C)cc2)n1 (centres undefined) |  |  | 24 | 8 | 19 | <8 | 41 | 60 |  | Activity (Canis familiaris [30]): 33 mL/min; Time (Rattus norvegicus [11]): <6 h
16 | CC(C)(C)NCC(O)COc1ccc(-c2ncc[nH]2)cc1 (centres undefined) |  |  |  |  |  |  |  | 36 |  | Activity (Rattus norvegicus [12]): 33 mmHg; Time (Rattus norvegicus [31]): 1 h; Activity (Canis familiaris [30]): 31 mL/min
17 | CN(C)CCOc1ncccc1C#N |  |  |  |  |  |  |  | 100 | 72 | Activity (Rattus norvegicus [12]): 49 mmHg; Time (Rattus norvegicus [31]): 1 h
18 | Cc1cc(OCC(O)CNC(C)(C)C)cc(C)c1-c1ncc(C(F)(F)F)[nH]1 (centres undefined) |  |  |  | 18 | 19 | 4 | 30 | 7 |  | 
19 | CC(C)(C)NCC(O)COc1ccccn1 (centres undefined) | 0.07 | 0.01 |  |  | 10 |  | 33 |  | 30 | 
20 | CC(C)(C)NCC(O)COc1ccc(C#N)cn1 (centres undefined) |  |  |  |  |  |  | 15 | -13 | 19 | Activity (Canis familiaris [14]): -1 mL/min
21 | Cc1ccc(C#N)c(OCC(O)CNC(C)(C)C)n1 (centres undefined) | < 0.01 | < 0.01 |  |  | 5 |  |  | 70 | 43 | 
22 | NNc1nncc2ccccc12 [HYDRALAZINE] |  |  |  |  |  |  |  | 66 |  | Activity (Rattus norvegicus [17]): 30 mmHg; Time (Rattus norvegicus [19]): 6 h; Activity (Rattus norvegicus [20]): 40 mmHg; Time (Rattus norvegicus [21]): >7 h
